Where two headings read alike, the source gives them in different places.
How the values were obtained:
Assay type in all cases: cell-based
[1] = test system: HCV NS3 protease variant replicon A156V; experiment: 2-Day HCV Replicon IC50 Assay, A156V
Procedure: (§1) Huh-7 cells were propagated in Dulbecco's modified Eagle's medium (DMEM, JRH Biosciences, Lenexa, Kans.) supplemented with 10% heat-inactivated FBS (fetal bovine serum), 2 mM L-glutamine, and nonessential amino acids (JRH). The cells were transfected with an in vitro transcribed HCV replicon RNA identical to replicon 1377neo/NS3-3′/wt as described by Lohmann et al. (1999). Stable cell clones were selected and maintained in the presence of 250 μg/mL G418 (Invitrogen, Carlsbad, Calif.). […] The HCV NS3 protease variant replicons were constructed in the background of the mADE wild-type replicon as described previously [Chao Lin et al., “In Vitro Resistance Studies of Hepatitis C Virus Serine Protease Inhibitors, VX-950 and BILN 2061: Structural Analysis Indicates Different Resistance Mechanisms,” Journal of Biological Chemistry, 279(17); pp. 17508-17514 (2004)]. The replicon cells were propagated in DMEM supplemented with 10% FBS, 2 mM L-glutamine, nonessential amino acids, and 250 μg/mL G418. The cells were split twice per week in fresh media upon reaching confluence. There are approximately 200-300 copies of HCV RNA per 24-2 replicon cell.
(§2) HCV replicon RNA from cells was measured using the Quantigene Discover XL kit (Panomics Inc., Fremont Calif.) as per the manufacturer's instructions. Briefly, compound-treated replicon cells were lysed and immobilized on to capture plates using HCV specific oligonucleotides (designed based on the 5′ UTR region of HCV 1b genome sequence AJ238799 in the GenBank database) over night and the relative amounts of captured RNA was measured using oligonucleotide probe sets as per the manufacturer's instructions.
(§3) On the day prior to the assay, 10,000 replicon cells were plated per well of a 96-well plate and allowed to attach and grow overnight in DMEM (Invitrogen, Carlsbad, Calif.) supplemented with 10% heat-inactivated FBS (JRH Biosciences, Lenexa, Kans.), 2 mM L-glutamine (Invitrogen), nonessential amino acids (Invitrogen) and 250 μg/ml G418 (Invitrogen). Next day, the medium was removed and antiviral agents that were serially diluted in DMEM containing 2% FBS and 0.5% DMSO (Sigma Chemical Co., St. Louis, Mo.) without G418, was added. The replicon cells were incubated with the antiviral agents for 48 h. HCV replicon RNA from cells was measured using the Quantigene Discover XL kit (Panomics Inc., Fremont Calif.) as per the manufacturer's instructions. Briefly, compound-treated replicon cells were lysed and immobilized onto capture plates using HCV specific oligonucleotides overnight and the relative amounts of captured RNA was measured using oligonucleotide probe sets as per the manufacturer's instructions. Unless indicated otherwise, each data point represents the average of three replicates. The IC50 is the concentration of the compound at which the HCV replicon RNA level in cells is reduced by 50% as compared to the untreated replicon cell controls. To monitor the effect of compounds on cell proliferation or cell viability, replicon cells were treated with serially diluted compounds for 48 h, after which cell viability was determined using a CellTiter Glo assay (Promega, Madison, Wis.). Each CC50 is derived from at least two replicates and is the concentration of the compound at which the number of viable cells is reduced by 50% as compared to untreated cell controls. The IC50 and CC50 was determined using 4-parameter curve fitting in the SoftMax Pro program (Molecular Devices, Sunnyvale, Calif.).
(§4) The sensitivity of NS3 protease variants to ribavirin and interferon was assessed in a 2-Day HCV Replicon IC50 Assay.

[2] = test system: HCV replicon cells (wild-type clone 24-2, Huh-7); experiment: 2-day Replicon assay with bDNA quantitation, checkerboard combination (Bliss independence / MacSynergy); conditions: VX-950 in the checkerboard experiment with the named polymerase inhibitor, read-out: VX-950 IC50
Procedure: Huh-7 cells were propagated in Dulbecco's modified Eagle's medium (DMEM, JRH Biosciences, Lenexa, Kans.) supplemented with 10% heat-inactivated FBS (fetal bovine serum), 2 mM L-glutamine, and nonessential amino acids (JRH). The cells were transfected with an in vitro transcribed HCV replicon RNA identical to replicon 1377neo/NS3-3′/wt as described by Lohmann et al. (1999). Stable cell clones were selected and maintained in the presence of 250 μg/mL G418 (Invitrogen, Carlsbad, Calif.). One of the clones, 24-2, was used as the wild-type in the subsequent HCV replicon assays for combination studies. The HCV NS3 protease variant replicons were constructed in the background of the mADE wild-type replicon as described previously [Chao Lin et al., “In Vitro Resistance Studies of Hepatitis C Virus Serine Protease Inhibitors, VX-950 and BILN 2061: Structural Analysis Indicates Different Resistance Mechanisms,” Journal of Biological Chemistry, 279(17); pp. 17508-17514 (2004)]. The replicon cells were propagated in DMEM supplemented with 10% FBS, 2 mM L-glutamine, nonessential amino acids, and 250 μg/mL G418. The cells were split twice per week in fresh media upon reaching confluence. There are approximately 200-300 copies of HCV RNA per 24-2 replicon cell.
as §2, §3
The effects of drug-drug combinations were evaluated using the Bliss independence model [W. R. Greco et al., “The search for synergy: a critical review from a response surface perspective,” Pharmacol. Rev., 47, pp. 331-385 (1995)]. The experimental data were analyzed by using MacSynergy, a three-dimensional analytical method developed by Prichard and Shipman [M. N. Prichard and C. […]

[3] = test system: HCV NS3 protease variant replicon V36A; experiment: microbe, parasite or virus in culture
Procedure: as §1, §2, §3, §4

[4] = test system: HCV NS3 protease variant replicon V36M; experiment: microbe, parasite or virus in culture
Procedure: as §1, §2, §3, §4

[5] = test system: HCV NS3 protease variant replicon R155K; experiment: microbe, parasite or virus in culture
Procedure: as §1, §2, §3, §4

[6] = test system: HCV NS3 protease variant replicon T54A; experiment: microbe, parasite or virus in culture
Procedure: as §1, §2, §3, §4

[7] = test system: HCV NS3 protease variant replicon V36M+R155K; experiment: microbe, parasite or virus in culture; conditions: V36M-R155K; ratio of mutant IC50 to Wild type IC50 for the same inhibitor
Procedure: as §1, §2, §3, §4

[8] = test system: HCV NS3 protease variant replicon A156T; experiment: 2-Day HCV Replicon IC50 Assay, A156T
Procedure: as §1, §2, §3, §4

[9] = test system: HCV replicon Wild Type (mADE); experiment: 2-Day HCV Replicon IC50 Assay, wild type replicon; conditions: Wild Type replicon
Procedure: as §1, §2, §3, §4

[10] = Hepatitis C virus, read-out: Avg. IC50 ± STDEV

CCC[C@H](NC(=O)[C@@H]1[C@H]2CCC[C@H]2CN1C(=O)[C@@H](NC(=O)[C@@H](NC(=O)c1cnccn1)C1CCCCC1)C(C)(C)C)C(=O)C(=O)NC1CC1 [VX-950]
Fold Change ([1]; A156V, ratio of mutant IC50 to Wild type IC50 for the same inhibitor): >65.2
IC50 [1, 10]: > 30 µM
IC50 ([2]; Hepatitis C virus, Huh-7, 48 h): 0.31 µM
IC50 ([2]; 48 h, with polymerase inhibitor of Formula I): 0.42 µM
IC50 ([2]; 48 h, with polymerase inhibitor of Formula II): 0.34 µM
IC50 [3, 10]: 3.57 ± 1.05 µM
Fold Change ([3]; V36A, ratio of mutant IC50 to Wild type IC50 for the same inhibitor): 7.7 ± 2.3
IC50 [4, 10]: 3.38 ± 0.775 µM
Fold Change ([4]; V36M, ratio of mutant IC50 to Wild type IC50 for the same inhibitor): 7.3 ± 1.7
IC50 [5, 10]: 3.59 ± 0.283 µM
Fold Change ([5]; R155K, ratio of mutant IC50 to Wild type IC50 for the same inhibitor): 7.8 ± 0.6
IC50 [6, 10]: 3.04 ± 0.819 µM
Fold Change ([6]; T54A, ratio of mutant IC50 to Wild type IC50 for the same inhibitor): 6.6 ± 1.8
Fold Change [7]: ≧65.2
Fold Change ([8]; A156T, ratio of mutant IC50 to Wild type IC50 for the same inhibitor): >65.2
IC50 [8, 10]: > 30 µM
IC50 ([9]; Hepatitis C virus, Table 8, read-out: Avg. IC50 ± STDEV): 0.46 ± 0.101 µM
Fold Change ([9]; ratio of IC50 to Wild type IC50 for the same inhibitor): 1 ± 0.2
